Measurements published in PubChem BioAssay (NCI).
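Tested at 5 concentrations; 48 h exposure; 96-well plates; endpoints linearly interpolated, else capped at highest concentration. GI50: concentration for 50% inhibition of growth. TGI denotes the concentration required for complete inhibition of growth.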

How the values were obtained:
Assay in all cases: DTP human tumour cell line panel, 48 h
[1] = system: MDA-MB-231 breast
[2] = system: TK-10 renal
[3] = system: RXF 393 renal
[4] = system: NCI-H460 lung
[5] = system: SW-620 colon
[6] = system: COLO 205 colon
[7] = system: HS 578T breast
[8] = system: SK-MEL-5 melanoma

Row | Compound | TGI [1] | TGI [2] | TGI [3] | TGI [4] | TGI [5] | TGI [6] | TGI [7] | TGI [8] | GI50 [1] | GI50 [2] | GI50 [3] | GI50 [4] | GI50 [5] | GI50 [6] | GI50 [7] | GI50 [8]
1 | Cc1ccccc1NC(=S)N=Nc1c(O)[nH]c2ccccc12 | > 100 µM | > 100 µM | > 100 µM | > 100 µM | > 100 µM | > 100 µM | > 100 µM | > 100 µM | – | – | – | – | – | – | – | –
2 | C=CCN1CC2CN=NC2(C#N)C1 (stereo unspecified) | > 100 µM | > 100 µM | > 100 µM | > 100 µM | > 100 µM | > 100 µM | – | > 100 µM | – | – | – | – | – | – | – | –
3 | CC(=O)O[C@H]1CC[C@@]2(C)C(=CC[C@@H]3[C@@H]2CC[C@]2(C)c4nc(N)c(C#N)cc4C[C@@H]32)C1 | > 100 µM | > 100 µM | 49 µM | > 100 µM | > 100 µM | > 100 µM | > 95.2 µM | 43.4 µM | – | – | – | – | – | – | – | –
4 | C[C@H](CC[C@@H](O)C(C)(C)O)[C@H]1CC[C@@]2(C)[C@@H]3CC=C4[C@@H](CC[C@H](OC5OC(CO)C(O)C(O)C5O)C4(C)C)[C@]3(C)C(=O)C[C@]12C (stereo partly specified) | > 100 µM | > 100 µM | > 100 µM | > 100 µM | > 100 µM | > 100 µM | > 100 µM | > 100 µM | – | – | – | – | – | – | – | –
5 | CC1(C)Oc2ccc(Cl)cc2C12CC2 | 47.6 µM | 40.7 µM | 30.2 µM | 39.7 µM | 30.9 µM | 32.9 µM | 44.8 µM | 38.6 µM | – | – | – | – | – | – | – | –
6 | CC(NC(=O)C(C)C(=O)NCc1ccc(C(F)(F)F)cc1)C(N)=O (stereo unspecified) | > 100 µM | – | > 100 µM | > 100 µM | > 100 µM | > 100 µM | > 100 µM | > 100 µM | – | – | – | – | – | – | – | –
7 | O=C(NCCO)c1c(O)c2ccccc2[nH]c1=O | > 100 µM | > 100 µM | > 100 µM | > 100 µM | > 100 µM | > 100 µM | > 100 µM | > 100 µM | – | – | – | – | – | – | – | –
8 | Oc1c(I)cc(I)cc1CNCCCN(Cc1ccccn1)Cc1ccccn1 | 2.12 µM | 1.8 µM | 1.66 µM | 2.78 µM | 2.41 µM | 5.99 µM | 4.53 µM | 1.59 µM | 1.01 µM | 0.922 µM | 0.866 µM | 1.2 µM | 1.04 µM | 1.65 µM | 1.38 µM | 0.886 µM
9 | C=C(C)CC1=C(C(=S)NCCO[Si](C)(C)C(C)(C)C)C(OCC)(OCC)C1=O | 67.5 µM | 34.8 µM | 31.5 µM | – | 47 µM | 75 µM | > 100 µM | 51 µM | – | – | – | – | – | – | – | –
10 | O=[N+]([O-])c1cccc2nc3ccccc3c(NCCC[N+]3([O-])CCCCC3)c12 | 1.16 µM | 10.9 µM | 2 µM | 1.18 µM | > 34.8 µM | 0.317 µM | 4.02 µM | 1.35 µM | – | – | – | – | – | – | – | –
11 | O=C1CCC2=C(CCC2)N1CCc1ccc2c(c1)OCO2 | > 100 µM | > 100 µM | 52.5 µM | > 100 µM | > 100 µM | > 100 µM | > 100 µM | > 100 µM | – | – | – | – | – | – | – | –
12 | COC(=O)c1ccc(C)cc1C1CN=NC12Cc1cc(C)c(C)cc1C2=O (stereo unspecified) | 81.4 µM | > 100 µM | > 100 µM | > 100 µM | > 100 µM | – | > 100 µM | 49.2 µM | – | – | – | – | – | – | – | –
13 | CC1NOC(NS(=O)(=O)c2ccc(N=Nc3c(O)c(C(=O)O)cc4ccccc34)cc2)C1C (stereo unspecified) | > 100 µM | > 100 µM | > 100 µM | > 100 µM | > 100 µM | > 100 µM | > 100 µM | > 100 µM | – | – | – | – | – | – | – | –
14 | c1ccc(C(CCN2CCCC2)c2ccccn2)cc1 (stereo unspecified) | > 100 µM | > 100 µM | > 100 µM | > 100 µM | > 100 µM | > 100 µM | > 100 µM | > 100 µM | – | – | – | – | – | – | – | –
15 | CC(C)OC(=O)c1ccc(CCC2=CC(=O)C(Br)=CC2=O)cc1 | 31.1 µM | 45.3 µM | 31.2 µM | 46.6 µM | 29.2 µM | 24.7 µM | 38.1 µM | 25.7 µM | – | – | – | – | – | – | – | –
16 | N#CC1N(C(=O)c2ccc(F)cc2)c2ccccc2N1C(=O)c1ccc(F)cc1 | > 100 µM | > 100 µM | > 100 µM | > 100 µM | > 100 µM | 45.6 µM | > 100 µM | 63.2 µM | – | – | – | – | – | – | – | –
17 | c1ccc(C(=NNc2nc3ccccc3[nH]2)c2ccccn2)nc1 | > 53.6 µM | – | – | > 100 µM | > 100 µM | 16.1 µM | > 100 µM | 1.69 µM | – | – | – | – | – | – | – | –
18 | Cc1cccc2c(N)c3cccc(C(=O)NCC[N+](C)(C)Cc4sc(N5CCOCC5)nc4[N+](=O)[O-])c3nc12 | 13.1 µM | 37.6 µM | 20.8 µM | – | > 100 µM | > 100 µM | 28.5 µM | > 100 µM | – | – | – | – | – | – | – | –
19 | c1ccc([C@H]2CN3CCSC3=N2)cc1 | > 100 µM | – | > 100 µM | > 100 µM | > 100 µM | > 100 µM | – | > 100 µM | – | – | – | – | – | – | – | –
20 | C=C1C(=O)[C@]23[C@H](O)[C@H]1CC[C@H]2[C@@]12CO[C@@]3(O)C[C@@H]1C(C)(C)CC[C@@H]2O | 17.9 µM | > 25 µM | 11.5 µM | – | 13.8 µM | 7.52 µM | 22.2 µM | > 25 µM | – | – | – | – | – | – | – | –
21 | COC(=O)C[C@H](COCc1ccccc1)NC(=O)C[C@H](COCc1ccccc1)NC(=O)C[C@H](COCc1ccccc1)NC(=O)OC(C)(C)C | > 100 µM | – | 72 µM | – | > 100 µM | > 100 µM | > 100 µM | > 100 µM | – | – | – | – | – | – | – | –
22 | NCCCCNCCCN | > 100 µM | > 100 µM | > 100 µM | > 100 µM | > 100 µM | > 100 µM | – | > 100 µM | – | – | – | – | – | – | – | –
23 | O=C(NN=C1CCCCC1)Nc1ccccc1Cl | > 100 µM | > 100 µM | – | > 100 µM | > 100 µM | > 100 µM | > 100 µM | > 100 µM | – | – | – | – | – | – | – | –
24 | O=c1[nH]c(=O)n(C2CC(O)C(CO)O2)cc1NN=NCc1ccccc1 (stereo unspecified) | > 100 µM | > 100 µM | > 100 µM | > 100 µM | – | – | > 100 µM | > 100 µM | – | – | – | – | – | – | – | –
25 | Cc1cc(S(=O)(=O)O)ccc1N=Nc1ccc(N=Nc2c(O)ccc3ccccc23)c(C)c1 | > 100 µM | > 100 µM | > 100 µM | – | > 100 µM | > 100 µM | > 100 µM | > 100 µM | – | – | – | – | – | – | – | –
